{
  "source": "patent US20050112573A1",
  "about": "“Method of detecting toxic substance” (priority 2001, published 2005)",
  "tested_on": "yeast genes (level of expressed mRNA)",
  "assay": "DNA chip analysis of expressed mRNA of yeast genes after 2 h culture with a toxic chemical substance",
  "format": "cell-based, Saccharomyces cerevisiae S288C",
  "details": "for The level of expressed mRNA in the presence of chemical substance/ (ratio to absence of chemical substance): stress protein genes, DNA chip",
  "method": "Yeast (Saccharomyces cerevtisiae S288C (α SUC2mal mel gap2 CUP1)) were cultured at 25° C. on YPD medium (yeast extract 1%, polypepton 2%, glucose 2%). One of toxic chemical substances was added to the cell at logarithmic growth phase, and the cell was further cultured for two hours. Cell was cultured without any chemical substance in the same condition, and was used as control. Concentrations of the chemical substances were defined to inhibit the growth of the yeast but not lead to death.\nAfter the completion of cultivation, the culture was centrifuged to collect the cells. To the cells, sodium acetate buffer (50 mM sodium acetate, 10 mM EDTA, 1% SDS) was added, and the mixture was shaken at 65° C. for five minutes, followed by returning to room temperature, and obtaining the supernatant, which procedure was repeated two times. To the supernatant, ½ amount of a solution of phenol/chloroform was added, and the mixture was centrifuged to give a supernatant, which was added with an equal amount of chloroform, and the mixture was centrifuged to give a supernatant. To the supernatant, an equal amount of isopropanol containing 0.3 M sodium acetate was added, and the mixture was allowed to stand at room temperature for 30 minutes, after which the mixture was centrifuged to give a sediment of the whole RNAs. Seventy % ethanol was added to the sediment, and the mixture was again centrifuged to give a sediment, which was then dried and dissolved in water. mRNA was isolated from the whole RNAs as followings. In view of the fact that a poly A chain is attached to the 3′ terminus of mRNA, a polynucleotide having a poly T structure which was immobilized on the surface of latex beads was used to trap the mRNA, and then the mRNA was washed and eluted with spine column (Oligotex-dT30<Super>mRNA Purification Kit, Takara). Reverse transcription of the mRNA was conducted with a reverse transcriptase (Super Script II Reverse Transcriptase; catalogue No. 18064-014, GibcoBRL) using fluorescence-labeled nucleotides to give cDNAs that were introduced with Cy3-dUTP or Cy5-dUTP during the reverse transcription.\nThe labeled cDNAs were dissolved in TE buffer (10 mM Tris-HCl/1 mM EDTA, pH8.0), and the solution was dropped on the DNA chip containing the whole genes of yeast (DNA Chip Research Inc. Japan) so that the cDNAs were hybridized on the DNA chip at 65° C. for over 12 hours. The fluoresces intensity of the DNA chip was read with a scanner, and the ratio relative to the fluorescence intensity resulting from the absence of chemical substance was estimated as the following, which is shown in Tables 1 to 9: [formula]\nIn the Tables, “Intensity” indicated in the rightmost column is a value of the level of expressed mRNA of each gene in control cells as divided by the average level of the expressions of the whole genes.",
  "data": [
    {"molecule": "CCCCC[C@H](O)CC(=O)CCc1ccc(O)c(OC)c1", "note": "[(13), gingerol]", "values": [
      {"measurement": "The level of expressed mRNA in the presence of chemical substance/absence: YOR267C", "setting": "gene YOR267C", "value": 1.4},
      {"measurement": "The level of expressed mRNA in the presence of chemical substance/absence: YOR325W", "setting": "gene YOR325W", "value": 0.6},
      {"measurement": "level of expressed mRNA in the presence of chemical substance/in its absence", "setting": "gene YOR336W", "value": 2.1},
      {"measurement": "level of expressed mRNA in the presence of chemical substance/in its absence", "setting": "gene YOR344C", "value": 1.8},
      {"measurement": "level of expressed mRNA in the presence of chemical substance/in its absence", "setting": "gene YOR347C", "value": 1.8},
      {"measurement": "The level of expressed mRNA in the presence of chemical substance/absence: YPL005W", "setting": "gene YPL005W", "value": 1.2},
      {"measurement": "level of expressed mRNA in the presence of chemical substance/in its absence", "setting": "gene YPL017C", "value": 1.9},
      {"measurement": "The level of expressed mRNA in the presence of chemical substance / the level in the absence of chemical substance, yeast gene YPL107W", "setting": "gene YPL107W, DNA chip fluorescence ratio to control without chemical, 2 hours culture with chemical, growth-inhibiting non-lethal concentration", "value": 0.8},
      {"measurement": "The level of expressed mRNA in the presence of chemical substance / the level in the absence of chemical substance, yeast gene YPL138C", "setting": "gene YPL138C, DNA chip fluorescence ratio to control without chemical, 2 hours culture with chemical, growth-inhibiting non-lethal concentration", "value": 0.6},
      {"measurement": "The level of expressed mRNA in the presence of chemical substance/absence: YPL150W", "setting": "gene YPL150W", "value": 2.1},
      {"measurement": "The level of expressed mRNA in the presence of chemical substance/absence: YPL151C", "setting": "gene YPL151C", "value": 1.4},
      {"measurement": "The level of expressed mRNA in the presence of chemical substance/absence: YPL152W", "setting": "gene YPL152W", "value": 1.4},
      {"measurement": "The level of expressed mRNA in the presence of chemical substance/absence: YPL168W", "setting": "gene YPL168W", "value": 1.0},
      {"measurement": "The level of expressed mRNA in the presence of chemical substance/absence: YPL180W", "setting": "gene YPL180W", "value": 1.5},
      {"measurement": "The level of expressed mRNA in the presence of chemical substance/absence: YPL188W", "setting": "gene YPL188W", "value": 0.9},
      {"measurement": "The level of expressed mRNA in the presence of chemical substance/absence: YPL221W", "setting": "gene YPL221W", "value": 1.0},
      {"measurement": "The level of expressed mRNA in the presence of chemical substance/absence: YPL225W", "setting": "gene YPL225W", "value": 0.8},
      {"measurement": "The level of expressed mRNA in the presence of chemical substance/absence: YPL249C", "setting": "gene YPL249C", "value": 1.8},
      {"measurement": "The level of expressed mRNA in the presence of chemical substance/absence: YPL260W", "setting": "gene YPL260W", "value": 1.4},
      {"measurement": "level of expressed mRNA in the presence of chemical substance/in its absence", "setting": "gene YPL265W", "value": 1.1},
      {"measurement": "level of expressed mRNA in the presence of chemical substance/in its absence", "setting": "gene YPR006C", "value": 1.8},
      {"measurement": "level of expressed mRNA in the presence of chemical substance/in its absence", "setting": "gene YPR026W", "value": 2.3},
      {"measurement": "The level of expressed mRNA in the presence of chemical substance/absence: YPR049C", "setting": "gene YPR049C", "value": 1.6},
      {"measurement": "The level of expressed mRNA in the presence of chemical substance/absence: YPR061C", "setting": "gene YPR061C", "value": 1.1},
      {"measurement": "The level of expressed mRNA in the presence of chemical substance/absence: YPR093C", "setting": "gene YPR093C", "value": 1.4},
      {"measurement": "The level of expressed mRNA in the presence of chemical substance/absence: YPR146C", "setting": "gene YPR146C", "value": 1.3},
      {"measurement": "The level of expressed mRNA in the presence of chemical substance/absence: YPR148C", "setting": "gene YPR148C", "value": 1.2},
      {"measurement": "The level of expressed mRNA in the presence of chemical substance/absence: YPR150W", "setting": "gene YPR150W", "value": 1.4},
      {"measurement": "The level of expressed mRNA in the presence of chemical substance/absence: YPR158W", "setting": "gene YPR158W", "value": 1.6},
      {"measurement": "The level of expressed mRNA in the presence of chemical substance/absence: YPR169W", "setting": "gene YPR169W", "value": 1.0},
      {"measurement": "The level of expressed mRNA in the presence of chemical substance/absence: YPR172W", "setting": "gene YPR172W", "value": 1.3},
      {"measurement": "The level of expressed mRNA in the presence of chemical substance/absence: YPR174C", "setting": "gene YPR174C", "value": 1.4},
      {"measurement": "The level of expressed mRNA in the presence of chemical substance/The level of expressed mRNA in the absence of chemical substance", "setting": "yeast gene YAR010C", "value": 1.4},
      {"measurement": "The level of expressed mRNA in the presence of chemical substance/The level of expressed mRNA in the absence of chemical substance", "setting": "yeast gene YBL005W-A", "value": 2.9},
      {"measurement": "The level of expressed mRNA in the presence of chemical substance/ (ratio to absence), gene YBL038W", "setting": "yeast gene YBL038W, mitochondria-located protein genes, 2 h culture with chemical", "value": 1.0},
      {"measurement": "The level of expressed mRNA in the presence of chemical substance/The level of expressed mRNA in the absence of chemical substance", "setting": "yeast gene YBL041W", "value": 2.6},
      {"measurement": "The level of expressed mRNA in the presence of chemical substance/The level of expressed mRNA in the absence of chemical substance", "setting": "yeast gene YBL043W", "value": 1.8},
      {"measurement": "The level of expressed mRNA in the presence of chemical substance/The level of expressed mRNA in the absence of chemical substance", "setting": "yeast gene YBL078C", "value": 5.0},
      {"measurement": "The level of expressed mRNA in the presence of chemical substance/ (ratio to absence of chemical substance)", "setting": "yeast gene YBL093C", "value": 2.1},
      {"measurement": "The level of expressed mRNA in the presence of chemical substance/ (in its absence), gene YBR036C", "setting": "yeast gene YBR036C, ratio of DNA chip fluorescence intensity to that without chemical substance", "value": 1.9},
      {"measurement": "The level of expressed mRNA in the presence of chemical substance/ (ratio to absence of chemical substance)", "setting": "yeast gene YBR044C", "value": 1.2},
      {"measurement": "The level of expressed mRNA in the presence of chemical substance/ (ratio to absence), gene YBR122C", "setting": "yeast gene YBR122C, mitochondria-located protein genes, 2 h culture with chemical", "value": 0.8},
      {"measurement": "The level of expressed mRNA in the presence of chemical substance/The level of expressed mRNA in the absence of chemical substance", "setting": "yeast gene YBR214W", "value": 2.1},
      {"measurement": "The level of expressed mRNA in the presence of chemical substance/ (ratio to absence), gene YBR251W", "setting": "yeast gene YBR251W, mitochondria-located protein genes, 2 h culture with chemical", "value": 1.0},
      {"measurement": "The level of expressed mRNA in the presence of chemical substance/ (in its absence), gene YBR298C", "setting": "yeast gene YBR298C, ratio of DNA chip fluorescence intensity to that without chemical substance", "value": 0.8},
      {"measurement": "The level of expressed mRNA in the presence of chemical substance/The level of expressed mRNA in the absence of chemical substance", "setting": "yeast gene YCL020W", "value": 3.0},
      {"measurement": "The level of expressed mRNA in the presence of chemical substance/The level of expressed mRNA in the absence of chemical substance", "setting": "yeast gene YCL027W", "value": 1.1},
      {"measurement": "The level of expressed mRNA in the presence of chemical substance/The level of expressed mRNA in the absence of chemical substance", "setting": "yeast gene YCR004C", "value": 1.3},
      {"measurement": "The level of expressed mRNA in the presence of chemical substance/ (ratio to absence), gene YCR046C", "setting": "yeast gene YCR046C, mitochondria-located protein genes, 2 h culture with chemical", "value": 1.5},
      {"measurement": "The level of expressed mRNA in the presence of chemical substance/The level of expressed mRNA in the absence of chemical substance", "setting": "yeast gene YCR071C", "value": 1.3},
      {"measurement": "The level of expressed mRNA in the presence of chemical substance/ (ratio to absence), gene YCR083W", "setting": "yeast gene YCR083W, mitochondria-located protein genes, 2 h culture with chemical", "value": 1.8},
      {"measurement": "The level of expressed mRNA in the presence of chemical substance/ (ratio to absence of chemical substance)", "setting": "yeast gene YCR083W", "value": 1.8},
      {"measurement": "The level of expressed mRNA in the presence of chemical substance/The level of expressed mRNA in the absence of chemical substance", "setting": "yeast gene YCR088W", "value": 1.9},
      {"measurement": "The level of expressed mRNA in the presence of chemical substance/The level of expressed mRNA in the absence of chemical substance", "setting": "yeast gene YDL008W", "value": 2.0},
      {"measurement": "The level of expressed mRNA in the presence of chemical substance/ in its absence, gene YDL067C", "setting": "yeast gene YDL067C, energy system protein genes, 2 h culture with the chemical, ratio to control without chemical", "value": 0.6},
      {"measurement": "The level of expressed mRNA in the presence of chemical substance/ (ratio to absence), gene YDL067C", "setting": "yeast gene YDL067C, mitochondria-located protein genes, 2 h culture with chemical", "value": 0.6},
      {"measurement": "The level of expressed mRNA in the presence of chemical substance/ in its absence, gene YDL078C", "setting": "yeast gene YDL078C, energy system protein genes, 2 h culture with the chemical, ratio to control without chemical", "value": 1.0}
    ]}
  ]
}
